Tested on: c-Myc
Assay: c-Myc immunofluorescence assay
Assay type: cell-based, human
Conditions: A549 cells, 24 hours, anti-c-Myc immunofluorescence
Procedure: A549 human non-small cell lung carcinoma cells were treated for 24 hours with increasing compound concentration, cells were fixed and stained with a nuclei stain (DAPI) and anti-c-Myc fluorescent antibody. The c-Myc signal was quantified by image analysis, and data was exported and analyzed using TIBCO Spotfire® (TIBCO Corporation). Dose response curves were generated and fitted with logaristic regression to calculate potency (EC50 values). Potency values are presented in Table 2 for all compounds and are shown for selected compounds (FIG. 3).
A549 cells were grown in 384-wells plates (Perkin Elmer, Cat. 6057300) for 48 hours, treated with compounds and then fixed for 20 min in 4% paraformaldehyde. After that permeabilization was done using 0.1% Triton X-100 in PBS for 20 min. Primary anti-c-Myc antibody (Abcam, ab32072) staining was performed for 90 min at room temperature. Cells then were washed twice with PBS and incubated with secondary antibody (Abcam, ab150075) for 90 min at room temperature. Nuclei were stained with DAPI for 10 min and washed twice with PBS.
Cell images were taken with Operetta (Perkin Elmer, USA), a wide-field fluorescence microscope at 20× magnification. After acquisition, the images were transferred to Columbus software (Perkin-Elmer) for image analysis. In Columbus, cells were identified by their nucleus, using the “Find Nuceli” module and cytoplasm was detected based on the secondary antibody channel. Subsequently, the fluorescent signal was enumerated in the identified cell region. Then data was exported to a data analysis and visualization software, Tibco Spotfire, USA.

SMILES: CN1CCC[C@H](CN2CC[C@@H](CNC(=O)C3CCN(c4nc(-c5ccc(Cl)cc5)no4)CC3)C2)C1 (single isomer, unassigned) [Compound 470]
- Myc Efficacy (−LogEC50): ++ (++ ≥5 and <6)

SMILES: CN1CCC[C@H](CN2CC[C@H](CNC(=O)C3CCN(c4nc(-c5ccc(Cl)cc5)no4)CC3)C2)C1 (single isomer, unassigned) [Compound 471]
- Myc Efficacy (−LogEC50): ++ (++ ≥5 and <6)

SMILES: COc1ccc(-c2noc(N3CCC(C(=O)NCCCN4CCCCC4)CC3)n2)cc1 [Compound 101, 1-(3-(4-methoxyphenyl)-1,2,4-oxadiazol-5-yl)-N-(3-(piperidin-1-yl)propyl)piperidine-4-carboxamide]
- Myc Efficacy (−LogEC50): + (+ >3 and <5)

SMILES: CCCCN(CC)CCCNC(=O)C1CCN(c2nc(-c3ccc(OC)cc3)no2)CC1 [Compound 102, N-(3-(butyl(ethyl)amino)propyl)-1-(3-(4-methoxyphenyl)-1,2,4-oxadiazol-5-yl)piperidine-4-carboxamide]
- Myc Efficacy (−LogEC50): + (+ >3 and <5)

SMILES: CCc1ccc(CNC(=O)C2CCN(c3nc(-c4ccc(Cl)cc4)no3)CC2)cc1 [Compound 103, 1-(3-(4-chlorophenyl)-1,2,4-oxadiazol-5-yl)-N-(4-ethylbenzyl)piperidine-4-carboxamide]
- Myc Efficacy (−LogEC50): + (+ >3 and <5)

SMILES: CCCN1CCN(C(=O)C2CCN(c3nc(-c4ccc(OC)cc4)no3)CC2)CC1 [Compound 104, (1-(3-(4-methoxyphenyl)-1,2,4-oxadiazol-5-yl)piperidin-4-yl)(4-propylpiperazin-1-yl)methanone]
- Myc Efficacy (−LogEC50): + (+ >3 and <5)

SMILES: COc1ccc(-c2noc(N3CCC(C(=O)NCC4CCN(Cc5ccc(C)cc5)C4)CC3)n2)cc1 (centres unmarked) [Compound 105, 1-(3-(4-methoxyphenyl)-1,2,4-oxadiazol-5-yl)-N-((1-(4-methylbenzyl)pyrrolidin-3-yl)methyl)piperidine-4-carboxamide]
- Myc Efficacy (−LogEC50): ++ (++ ≥5 and <6)

SMILES: COc1ccc(-c2noc(N3CCC(C(=O)NC[C@H]4CCN(Cc5ccc(C)cc5)C4)CC3)n2)cc1 [Compound 106, (R)-1-(3-(4-methoxyphenyl)-1,2,4-oxadiazol-5-yl)-N-((1-(4-methylbenzyl)pyrrolidin-3-yl)methyl)piperidine-4-carboxamide]
- Myc Efficacy (−LogEC50): ++ (++ ≥5 and <6)

SMILES: COc1ccc(-c2noc(N3CCC(C(=O)NC[C@@H]4CCN(Cc5ccc(C)cc5)C4)CC3)n2)cc1 [Compound 107, (S)-1-(3-(4-methoxyphenyl)-1,2,4-oxadiazol-5-yl)-N-((1-(4-methylbenzyl)pyrrolidin-3-yl)methyl)piperidine-4-carboxamide]
- Myc Efficacy (−LogEC50): + (+ >3 and <5)

SMILES: COc1ccc(-c2noc(N3CCC(C(=O)N4CCCC4)CC3)n2)cc1 [Compound 109, (1-(3-(4-methoxyphenyl)-1,2,4-oxadiazol-5-yl)piperidin-4-yl)(pyrrolidin-1-yl)methanone]
- Myc Efficacy (−LogEC50): + (+ >3 and <5)

SMILES: COc1ccc(-c2noc(N3CCC(C(=O)N4CCC(C)CC4)CC3)n2)cc1 [Compound 110, (1-(3-(4-methoxyphenyl)-1,2,4-oxadiazol-5-yl)piperidin-4-yl)(4-methylpiperidin-1-yl)methanone]
- Myc Efficacy (−LogEC50): + (+ >3 and <5)

SMILES: COc1ccc(-c2noc(N3CCC(C(=O)NCCN(C)C)CC3)n2)cc1 [Compound 111, N-(2-(dimethylamino)ethyl)-1-(3-(4-methoxyphenyl)-1,2,4-oxadiazol-5-yl)piperidine-4-carboxamide]
- Myc Efficacy (−LogEC50): + (+ >3 and <5)

SMILES: COCCCNC(=O)C1CCN(c2nc(-c3ccc(OC)cc3)no2)CC1 [Compound 112, 1-(3-(4-methoxyphenyl)-1,2,4-oxadiazol-5-yl)-N-(3-methoxypropyl)piperidine-4-carboxamide]
- Myc Efficacy (−LogEC50): + (+ >3 and <5)

SMILES: CCN(CC)CCCNC(=O)C1CCN(c2nc(-c3ccc(OC)cc3)no2)CC1 [Compound 113, N-(3-(diethylamino)propyl)-1-(3-(4-methoxyphenyl)-1,2,4-oxadiazol-5-yl)piperidine-4-carboxamide]
- Myc Efficacy (−LogEC50): + (+ >3 and <5)

SMILES: CCN(CC)CCNC(=O)C1CCN(c2nc(-c3ccc(OC)cc3)no2)CC1 [Compound 114, N-(2-(diethylamino)ethyl)-1-(3-(4-methoxyphenyl)-1,2,4-oxadiazol-5-yl)piperidine-4-carboxamide]
- Myc Efficacy (−LogEC50): + (+ >3 and <5)

SMILES: COc1ccc(-c2noc(N3CCC(C(=O)NCc4ccccn4)CC3)n2)cc1 [Compound 115, 1-(3-(4-methoxyphenyl)-1,2,4-oxadiazol-5-yl)-N-(pyridin-2-ylmethyl)piperidine-4-carboxamide]
- Myc Efficacy (−LogEC50): − (− ≤3)

SMILES: COc1ccc(-c2noc(N3CCC(C(=O)NCc4cccnc4)CC3)n2)cc1 [Compound 116, 1-(3-(4-methoxyphenyl)-1,2,4-oxadiazol-5-yl)-N-(pyridin-3-ylmethyl)piperidine-4-carboxamide]
- Myc Efficacy (−LogEC50): + (+ >3 and <5)

SMILES: COc1ccc(-c2noc(N3CCC(C(=O)NCCCN4CCN(C)CC4)CC3)n2)cc1 [Compound 117, 1-(3-(4-methoxyphenyl)-1,2,4-oxadiazol-5-yl)-N-(3-(4-methylpiperazin-1-yl)propyl)piperidine-4-carboxamide]
- Myc Efficacy (−LogEC50): + (+ >3 and <5)

SMILES: CCCCN(CC)CCNC(=O)C1CCN(c2nc(-c3ccc(OC)cc3)no2)CC1 [Compound 119, N-(2-(butyl(ethyl)amino)ethyl)-1-(3-(4-methoxyphenyl)-1,2,4-oxadiazol-5-yl)piperidine-4-carboxamide]
- Myc Efficacy (−LogEC50): + (+ >3 and <5)

SMILES: COc1ccc(-c2noc(N3CCC(C(=O)NCc4cccs4)CC3)n2)cc1 [Compound 120, 1-(3-(4-methoxyphenyl)-1,2,4-oxadiazol-5-yl)-N-(thiophen-2-ylmethyl)piperidine-4-carboxamide]
- Myc Efficacy (−LogEC50): + (+ >3 and <5)

SMILES: COc1ccc(-c2noc(N3CCC(C(=O)NCc4cccc(OC)c4)CC3)n2)cc1 [Compound 121, N-(3-methoxybenzyl)-1-(3-(4-methoxyphenyl)-1,2,4-oxadiazol-5-yl)piperidine-4-carboxamide]
- Myc Efficacy (−LogEC50): + (+ >3 and <5)

SMILES: COc1ccc(-c2noc(N3CCC(C(=O)NCc4cccc(Cl)c4)CC3)n2)cc1 [Compound 122, N-(3-chlorobenzyl)-1-(3-(4-methoxyphenyl)-1,2,4-oxadiazol-5-yl)piperidine-4-carboxamide]
- Myc Efficacy (−LogEC50): + (+ >3 and <5)

SMILES: COc1ccc(-c2noc(N3CCC(C(=O)NCc4ccc(Cl)cc4)CC3)n2)cc1 [Compound 123, N-(4-chlorobenzyl)-1-(3-(4-methoxyphenyl)-1,2,4-oxadiazol-5-yl)piperidine-4-carboxamide]
- Myc Efficacy (−LogEC50): + (+ >3 and <5)

SMILES: COc1ccc(-c2noc(N3CCC(C(=O)NCCCN4CCCC(C)C4)CC3)n2)cc1 (centres unmarked) [Compound 124, 1-(3-(4-methoxyphenyl)-1,2,4-oxadiazol-5-yl)-N-(3-(3-methylpiperidin-1-yl)propyl)piperidine-4-carboxamide]
- Myc Efficacy (−LogEC50): + (+ >3 and <5)

SMILES: COc1ccc(-c2noc(NCCCN3CCC(Cc4ccccc4)CC3)n2)cc1 [Compound 125, N-(3-(4-benzylpiperidin-1-yl)propyl)-3-(4-methoxyphenyl)-1,2,4-oxadiazol-5-amine]
- Myc Efficacy (−LogEC50): + (+ >3 and <5)

SMILES: CCc1ccc(CNC(=O)C2CCN(c3nc(-c4ccc(OC)cc4)no3)CC2)cc1 [Compound 126, N-(4-ethylbenzyl)-1-(3-(4-methoxyphenyl)-1,2,4-oxadiazol-5-yl)piperidine-4-carboxamide]
- Myc Efficacy (−LogEC50): + (+ >3 and <5)
